In this assay the target is Factor D (Homo sapiens, UniProt P00746). The experiment in a line: Factor D esterolytic assay (Z-Lys-SBzl thioester substrate, DTNB, 405 nm). The assay is classed as biochemical. Conditions: substrate Z-Lys-SBzl 1.29 mM, 100 mM HEPES, 500 mM NaCl, pH 7.5, 10% DMSO, tested a minimum of three times. In a few lines:
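Human Factor D hydrolysis of Z-Lys-SBzl (1.29 mM) monitored at 405 nm via DTNB thiol detection for 600 s, 690 nm background subtracted. Buffer 100 mM HEPES, 500 mM NaCl, pH 7.5, 10% DMSO; substrate added immediately or after room-temperature preincubation. IC50 from percent inhibition of rate, at least three tests.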

Molecules are shown by their SMILES.

Chain of Factor D (P00746 26-253): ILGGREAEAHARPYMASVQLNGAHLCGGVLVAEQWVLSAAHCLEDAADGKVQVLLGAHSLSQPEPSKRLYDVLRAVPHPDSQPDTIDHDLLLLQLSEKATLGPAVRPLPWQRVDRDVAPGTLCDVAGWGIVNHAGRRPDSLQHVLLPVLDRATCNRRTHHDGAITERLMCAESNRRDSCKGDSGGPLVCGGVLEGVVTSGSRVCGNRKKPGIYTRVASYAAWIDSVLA

Consider `Cc1cc(C(F)(F)F)cc2c3c(N)ncnc3n(CC(=O)N3[C@H](C(=O)Nc4cncc(Br)n4)C[C@@]4(C)C[C@@H]34)c12` [Compound 296a, (1R,3S,5R)-2-(2-(4-amino-8-methyl-6-(trifluoromethyl)-9H-pyrimido[4,5-b]indol-9-yl)acetyl)-N-(6-bromopyrazin-2-yl)-5-methyl-2-azabicyclo[3.1.0]hexane-3-carboxamide], for which the concentration for half-maximal inhibition (IC50) is < 100 nM.
Next, `CNC(=O)Nc1ccc2c(c1)c1c(N)ncnc1n2CC(=O)N1[C@@H]2C[C@@H]2C[C@H]1C(=O)Nc1cccc(Br)n1` [Compound 297d, (1R,3S,5R)-2-(2-(4-amino-6-(3-methylureido)-9H-pyrimido[4,5-b]indol-9-yl)acetyl)-N-(6-bromopyridin-2-yl)-2-azabicyclo[3.1.0]hexane-3-carboxamide]: < 100 nM; `Nc1ncnc2c1c1nc(-c3ccccc3)ccc1n2CC(=O)N1[C@@H]2C[C@@H]2C[C@H]1C(=O)Nc1cccc(Br)n1` [Compound 298c, (1R,3S,5R)-2-(2-(4-amino-6-phenyl-9H-pyrido[2′,3′:4,5]pyrrolo[2,3-d]pyrimidin-9-yl)acetyl)-N-(6-bromopyridin-2-yl)-2-azabicyclo[3.1.0]hexane-3-carboxamide]: < 100 nM.
Next, `C[C@@]12C[C@@H](C(=O)Nc3cccc(Br)n3)N(C(=O)Cn3c4ccc(-c5ccccc5)nc4c4c(N)ncnc43)[C@@H]1C2` [Compound 299a, (1R,3S,5R)-2-(2-(4-amino-6-phenyl-9H-pyrido[2′,3′:4,5]pyrrolo[2,3-d]pyrimidin-9-yl)acetyl)-N-(6-bromopyridin-2-yl)-5-methyl-2-azabicyclo[3.1.0]hexane-3-carboxamide]: < 100 nM; `Cc1cc(C(F)(F)F)cc2c3c(N)ncnc3n(CC(=O)N3C[C@H](F)C[C@H]3C(=O)Nc3cccc(Cl)n3)c12` [Compound 300a, (2S,4R)-1-(2-(4-amino-8-methyl-6-(trifluoromethyl)-9H-pyrimido[4,5-b]indol-9-yl)acetyl)-N-(6-chloropyridin-2-yl)-4-fluoropyrrolidine-2-carboxamide]: < 100 nM; `Cc1cc(C(F)(F)F)cc2c3c(N)ncnc3n(CC(=O)N3C[C@H](F)C[C@H]3C(=O)Nc3cccc(Br)n3)c12` [Compound 301a, (2S,4R)-1-(2-(4-amino-8-methyl-6-(trifluoromethyl)-9H-pyrimido[4,5-b]indol-9-yl)acetyl)-N-(6-bromopyridin-2-yl)-4-fluoropyrrolidine-2-carboxamide]: < 100 nM.
Next, `Cc1ccc(Br)nc1NC(=O)[C@@H]1C[C@@]2(C)C[C@H]2N1C(=O)Cn1c2ncnc(N)c2c2cc(C(F)(F)F)cc(C)c21` [Compound 302a, (1R,3S,5R)-2-(2-(4-amino-8-methyl-6-(trifluoromethyl)-9H-pyrimido[4,5-b]indol-9-yl)acetyl)-N-(6-bromo-3-methylpyridin-2-yl)-5-methyl-2-azabicyclo[3.1.0]hexane-3-carboxamide]: < 100 nM; `Cc1ccc(Br)nc1NC(=O)[C@@H]1C[C@H]2C[C@H]2N1C(=O)Cn1c2ncnc(N)c2c2cc(C(F)(F)F)cc(C)c21` [Compound 303a, (1R,3S,5R)-2-(2-(4-amino-8-methyl-6-(trifluoromethyl)-9H-pyrimido[4,5-b]indol-9-yl)acetyl)-N-(6-bromo-3-methylpyridin-2-yl)-2-azabicyclo[3.1.0]hexane-3-carboxamide]: < 100 nM; `Cc1cc(C(F)(F)F)cc2c3c(N)ncnc3n(CC(=O)N3C[C@](C)(F)C[C@H]3C(=O)Nc3cccc(Br)n3)c12` [Compound 304a, (2S,4R)-1-(2-(4-amino-8-methyl-6-(trifluoromethyl)-9H-pyrimido[4,5-b]indol-9-yl)acetyl)-N-(6-bromopyridin-2-yl)-4-fluoro-4-methylpyrrolidine-2-carboxamide]: < 100 nM.
For the compound `Cc1cc(C(F)(F)F)cc2c3c(N)ncnc3n(CC(=O)N3C[C@](C)(F)C[C@H]3C(=O)Nc3cncc(Br)n3)c12` [Compound 305a, (2S,4R)-1-(2-(4-amino-8-methyl-6-(trifluoromethyl)-9H-pyrimido[4,5-b]indol-9-yl)acetyl)-N-(6-bromopyrazin-2-yl)-4-fluoro-4-methylpyrrolidine-2-carboxamide], the IC50 is < 100 nM.
With `Cc1cc(C(F)(F)F)cc2c3c(N)ncnc3n(CC(=O)N3CCC[C@H]3C(=O)Nc3cccc(Br)n3)c12` [Compound 306a, (S)-1-(2-(4-amino-8-methyl-6-(trifluoromethyl)-9H-pyrimido[4,5-b]indol-9-yl)acetyl)-N-(6-bromopyridin-2-yl)pyrrolidine-2-carboxamide], the IC50 was < 100 nM.
Take `Nc1ncnc2c1c1nc(-c3ccncc3)ccc1n2CC(=O)N1[C@@H]2C[C@@H]2C[C@H]1C(=O)Nc1cccc(Br)n1` [Compound 307c, (1R,3S,5R)-2-(2-(4-amino-6-(pyridin-4-yl)-9H-pyrido[2′,3′:4,5]pyrrolo[2,3-d]pyrimidin-9-yl)acetyl)-N-(6-bromopyridin-2-yl)-2-azabicyclo[3.1.0]hexane-3-carboxamide]: the IC50 is < 100 nM.
Take `Cc1ncc(-c2cc(C)c3c(c2)c2c(N)ncnc2n3CC(=O)N2[C@@H]3C[C@@H]3C[C@H]2C(=O)Nc2cccc(Br)n2)cn1` [Compound 308c, (1R,3S,5R)-2-(2-(4-amino-8-methyl-6-(2-methylpyrimidin-5-yl)-9H-pyrimido[4,5-b]indol-9-yl)acetyl)-N-(6-bromopyridin-2-yl)-2-azabicyclo[3.1.0]hexane-3-carboxamide]: the half-maximal inhibitory concentration (IC50) was < 100 nM.
Next, `Cc1ncc(-c2cc(C)c3c(c2)c2c(N)ncnc2n3CC(=O)N2[C@H](C(=O)Nc3cccc(Br)n3)C[C@@]3(C)C[C@@H]23)cn1` [Compound 309a, (1R,3S,5R)-2-(2-(4-amino-8-methyl-6-(2-methylpyrimidin-5-yl)-9H-pyrimido[4,5-b]indol-9-yl)acetyl)-N-(6-bromopyridin-2-yl)-5-methyl-2-azabicyclo[3.1.0]hexane-3-carboxamide]: < 100 nM; `Cc1ncc(-c2cc(C)c3c(c2)c2c(N)ncnc2n3CC(=O)N2[C@@H]3C[C@@H]3C[C@H]2C(=O)Nc2nc(Br)ccc2C)cn1` [Compound 310a, (1R,3S,5R)-2-(2-(4-amino-8-methyl-6-(2-methylpyrimidin-5-yl)-9H-pyrimido[4,5-b]indol-9-yl)acetyl)-N-(6-bromo-3-methylpyridin-2-yl)-2-azabicyclo[3.1.0]hexane-3-carboxamide]: < 100 nM.
In the case of `Cc1ncc(-c2cc(C)c3c(c2)c2c(N)ncnc2n3CC(=O)N2[C@H](C(=O)Nc3nc(Br)ccc3C)C[C@@]3(C)C[C@@H]23)cn1` [Compound 311a, (1R,3S,5R)-2-(2-(4-amino-8-methyl-6-(2-methylpyrimidin-5-yl)-9H-pyrimido[4,5-b]indol-9-yl)acetyl)-N-(6-bromo-3-methylpyridin-2-yl)-5-methyl-2-azabicyclo[3.1.0]hexane-3-carboxamide], the 50% inhibitory concentration (IC50) was < 100 nM.
With `Cc1ncc(-c2cc(C)c3c(c2)c2c(N)ncnc2n3CC(=O)N2C[C@H](F)C[C@H]2C(=O)Nc2cccc(Br)n2)cn1` [Compound 312a, (2S,4R)-1-(2-(4-amino-8-methyl-6-(2-methylpyrimidin-5-yl)-9H-pyrimido[4,5-b]indol-9-yl)acetyl)-N-(6-bromopyridin-2-yl)-4-fluoropyrrolidine-2-carboxamide], the half-inhibitory concentration (IC50) is < 100 nM.
